From ChEMBL document CHEMBL1156829 (Proc Natl Acad Sci U S A, 2008)

Columns and labels:
Plasmodium falciparum [1] = test: NOVARTIS: Inhibition of Plasmodium falciparum W2 (drug-resistant) proliferation in erythrocyte-based infection assay; assay type: functional, organism-based; conditions: Plasmodium falciparum, W2; read-out: EC50
Plasmodium falciparum [2] = test: NOVARTIS: Inhibition of Plasmodium falciparum 3D7 (drug-susceptible) proliferation in erythrocyte-based infection assay; assay type: functional, organism-based; conditions: Plasmodium falciparum, 3D7
[3] = NOVARTIS: Cytotoxicity against human hepatocellular carcinoma cell line (Huh7); assay type: toxicity, cell-based, Huh-7; conditions: Huh7 cells (hepatocellular carcinoma cell line)

Row | SMILES | EC50 (Plasmodium falciparum [1]) [nM] | EC50 (Plasmodium falciparum [2]) [nM] | CC50 [3] [nM]
1 | c1ccc(Nc2nc(-c3ccccn3)cs2)nc1 | 58.5 | 114 | 18600
2 | Cc1ccnc(NC(c2cccc(Cl)c2Cl)c2ccc3cccnc3c2O)c1 (configuration not stated) | 144 | 152 | > 49000
3 | CN(C)Cc1c(O)ccc2oc(Cc3ccccc3)cc12 | 59 | 219 | 20100
4 | CCN1CCN(Cc2c(O)ccc3c(=O)c(Oc4cc(C)cc(C)c4)c(C(F)(F)F)oc23)CC1 | 296 | 3630 | > 100000
5 | CCC(c1nc2ccccc2c(=O)n1-c1ccccc1OC)N(CCc1ccccc1)C(=O)c1cccc(OC)c1 (configuration not stated) | 31.1 | 1080 | > 10000
6 | CCOC(=O)c1c(CNc2ccncc2)n(C)c2cc(Br)c(OC(C)=O)cc12 | 310 | 257 | > 100000
7 | CC(Cl)=CCc1c(C)nc2c(ccc3ccccc32)c1O | 299 | 230 | > 100000
8 | COc1cc(OC)c(NC(=O)C2c3ccccc3C(=O)N(C)C2c2cccs2)cc1Cl (configuration not stated) | 310 | 320 | > 100000
9 | O=C(Nc1ccccc1Cl)c1cc2ccccc2cc1O | 298 | 327 | > 100000
10 | CCOC(=O)c1c(CNCCN(CC)CC)n(C)c2cc(Br)c(OC(C)=O)cc12 | 309 | 833 | > 100000
11 | Cc1ccc(-c2cn3c([n+]2-c2ccccc2)SCC3)cc1 | 309 | 427 | > 100000
12 | CC(C)CCN(CCC(C)C)CC(O)Cn1c2ccc(Br)cc2c2cc(Br)ccc21 (configuration not stated) | 309 | 1490 | > 100000
13 | Cc1ccc2cc3c(N)c4c(C)ccc(C)c4nc3nc2c1 | 308 | 431 | > 100000
14 | O=S(=O)(NCCNc1ncnc2scc(-c3ccccc3)c12)c1ccc(Cl)c(Cl)c1 | 307 | 290 | > 100000
15 | CC1=C(C(=O)OC(C)C)C(c2ccc(F)cc2)C2=C(CC(c3ccc(Cl)cc3)CC2=O)N1 (configuration not stated) | 91.3 | 358 | 29700
16 | COc1cc(NC(C)CCCN(Cc2ccc(Cl)cc2)C(=O)Nc2ccc(Cl)cc2Cl)c2ncccc2c1 (configuration not stated) | < 17.1 | 416 | 5600
17 | COc1ccc(/C=C/c2ccc3ccccc3[n+]2C)cc1 | 30.4 | 133 | > 10000
18 | O=C(Nc1ccc2c(c1)OCO2)c1cc2cc(C3(O)CCN(CC4CCCCC4)CC3)ccc2o1 | 311 | 442 | > 100000
19 | O=C(NC(=S)Nc1ccc(NC(=O)c2cccs2)cc1)c1ccco1 | 311 | 468 | > 100000
20 | CCCNC1=C(N(C(C)=O)c2ccc(C)cc2)C(=O)c2ccccc2C1=O | 13.1 | 13 | 4330
21 | Brc1ccc(-c2cn3c([n+]2-c2ccccc2)SCC3)cc1 | 303 | 335 | > 100000
22 | CC1CN(C(=O)C(Cl)(Cl)Cl)C(C)CN1C(=O)C(Cl)(Cl)Cl (configuration not stated) | 302 | 2050 | > 100000
23 | Cc1nc2ncccn2c1-c1csc(Nc2ccccn2)n1 | 314 | 189 | > 100000
24 | CCCCCSc1scc(-c2ccc(O)c(O)c2)[n+]1C | 313 | 254 | > 100000
25 | O=C(NCc1n[nH]c(=S)n1-c1ccc(Br)cc1)c1cccc2ccccc12 | 301 | 293 | > 100000
26 | Cc1cc(C)c2c(c1)OCN(Cc1ccccc1Cl)C2 | 300 | 192 | > 100000
27 | COc1ccc(-c2nc(CN3CCCCC3)ccc2O)cc1 | 30 | 131 | > 10000

Row | SMILES | EC50 (Plasmodium falciparum [1]) [nM] | EC50 (Plasmodium falciparum [2]) [nM] | CC50 [3] [nM]
28 | CC(C)(C)NCC(O)Cn1c2ccc(Cl)cc2c2cc(Cl)ccc21 (configuration not stated) | 56.3 | 258 | 18800
29 | CC(=O)N(C1=C(N2CCCCCC2)C(=O)c2ccccc2C1=O)C1CCCCC1 | 93.9 | 137 | 30200
30 | CCC(C(=O)NCc1ccc(OC)c(OC)c1)n1nc(C)c2c(C)n(-c3ccc(C)cc3)nc2c1=O (configuration not stated) | 299 | 273 | > 100000
31 | CC(C)(C)CC(C)(C)Nc1c(-c2ccccc2OC(=O)C2CCCC2)nc2ccccn12 | 29.9 | 2100 | > 10000
32 | O=C(c1ccc2nc(N3CCCCC3)sc2c1)N1CCN(Cc2ccc3c(c2)OCO3)CC1 | 298 | 407 | > 100000
33 | COc1ccc(-n2nc3c(c2NC(=O)C=Cc2cc(OC)c(OC)c(OC)c2)CSC3)cc1 | 294 | 392 | > 100000
34 | CCCCC(CC)C(=O)N1CCN(C(CC)c2nc3ccccc3c(=O)n2C)CC1 (configuration not stated) | 294 | 374 | > 100000
35 | CN(C)CCN1CCN(c2cccc(-c3cccc4cccnc34)n2)CC1 | 55.2 | 18 | 18800
36 | Cc1cc(C)n(CC(O)Cn2c3ccc(I)cc3c3cc(I)ccc32)n1 (configuration not stated) | 296 | 1190 | > 100000
37 | OC(CN1CCN(c2ccnc3cc(Cl)ccc23)CC1)CN1CCN(c2ccnc3cc(Cl)ccc23)CC1 | 29.6 | 85.6 | > 10000
38 | CCOC(=O)c1ccc(N(C(=O)Cc2c[nH]c3ccccc23)C(C(=O)NC2CCCCC2)c2cccnc2)cc1 (configuration not stated) | 295 | 280 | > 100000
39 | CC(=O)N(C1=C(N2CCCC2)C(=O)c2ccccc2C1=O)c1ccc(F)cc1 | 75.9 | 646 | 25800
40 | C[n+]1ccn(-c2ccc(C(=O)c3ccc(-n4cc[n+](C)c4)cc3)cc2)c1 | 29.4 | 33.5 | > 10000
41 | O=C(COc1ccc(Cl)cc1)Nc1cccc(-c2nc3ncccc3o2)c1 | 311 | 1640 | > 100000
42 | CCCc1cc(O)c2c3c(c(=O)oc2c1)CN(C)CC3 | 294 | 554 | > 100000
43 | O=C(c1c2c(nc3ccccc13)CCC2)N1CCc2ccccc21 | < 36.7 | 1940 | > 11700
44 | COC(=O)C1=C(C)N/C(=C\c2cc(C)n(-c3ccccc3C(F)(F)F)c2C)C1=O | 29.9 | 22.4 | > 10000
45 | CCCCCCc1cc(O)c2c3c(c(=O)oc2c1)CCC(C)C3 (configuration not stated) | 297 | 364 | > 100000
46 | CCN(CC)c1nc(NN=Cc2cccc([N+](=O)[O-])c2OC)nc(Nc2ccccc2)n1 | 294 | 244 | > 100000
47 | COc1ccc(C2=C(c3ccc(OC)cc3)C3(c4ccccc4)C(=O)C2(c2ccccc2)C2C(=O)N(c4ccc(OC)cc4[N+](=O)[O-])C(=O)C23)cc1 (configuration not stated) | 316 | 353 | > 100000
48 | Oc1nc(-c2ccccn2)nc(C(F)(F)F)c1Br | < 25.6 | 490 | > 8270
49 | Clc1ccc(-c2c[n+](CCc3ccccc3)c3n2CCC3)cc1 | 299 | 380 | > 100000
50 | Cc1cc2nc3ccc(N(C)C)cc3[n+](-c3ccccc3)c2cc1N | 31.2 | 156 | > 10000
51 | O=C1CC(c2ccccc2)CC2=C1C(c1cc(F)ccc1F)Nc1ccccc1N2 (configuration not stated) | 310 | 1020 | > 100000
52 | O=C1[C@@H]2CCCN2C(=O)C(c2ccc(Oc3ccccc3)cc2)N1CCc1ccccn1 (some centres not stated) | < 30.4 | > 1250 | > 10000
53 | CCCCCC1CCCc2c1[nH]c1cc(Cl)ccc1c2=O (configuration not stated) | 302 | 475 | > 100000
54 | CC[n+]1c(C=C2C=C(C)CC(C)C2)sc2ccccc21 (configuration not stated) | 300 | 326 | > 100000
